Measured values: publication PMC4848466, “Insights into the activation mechanism of class I HDAC complexes by inositol phosphates” (Nature Communications, 2016)

Tests used:
Type in all cases: biochemical
HDAC3:SMRT = HDAC3:SMRT (Homo sapiens, UniProt O15379+Q9Y618); assay: Michaelis-Menten enzyme kinetics on Caliper EZ Reader with H4K16ac peptide; parameters: Full-length HDAC3, and residues 350–480 of SMRT were cloned into pcDNA3 vectors; residues 350–480 of SMRT were cloned into pcDNA3 vectors; FLAG tag with TEV protease cleavage site (cleaved yes); made in house; host or cells: HEK293F cells (co-transfection, pcDNA3); details: H4 12–18K16ac peptide; in the presence of the inositol phosphate
Source text: (§1) To explore further the differences between the two complexes we established a more physiological, real-time kinetic assay using substrates based on the tails of histones H4 and H3. The peptides tested were; H4 12–18(K16ac), H3 23–29(K27ac) and H3 6–12(K9ac). […] HDAC3:SMRT is most catalytically active against H3 23–29(K27ac) (Supplementary Fig. 7), whereas HDAC1:MTA1 is most catalytically active against H4 12–18(K16ac) (Fig. 4d). In both cases an approximate 3-fold greater kcat is observed for the preferred versus non-preferred substrate, in the absence of inositol phosphate. […] The net effect of both inositol phosphates tested was between a two and fivefold increase in catalytic efficiency (kcat/Km) (Fig. 4c,d, Supplementary Fig. 7).
(§2) Michaelis–Menten kinetics were determined using a HDAC assay on the Caliper EZ Reader II system (Caliper Life Sciences, http://www.caliperls.com). To assess the effect of inositol phosphate, 20 nM HDAC3:SMRT or 80 nM HDAC1:MTA1 were pre-mixed with InsP6 before dilution and addition of fluorescein-labelled H4K16Ac substrate. Reactions were carried out in duplicate in 30 μl reaction volumes, performed at room temperature in 50 mM Tris pH 7.5, 50 mM NaCl, 5% glycerol. Data was analysed using GraphPad Prism (version 6.0).

D99A HDAC1 mutant = target: T1, D99A HDAC1 mutant (Homo sapiens, UniProt Q13330+Q13547, D99A); assay: Deacetylase activity of D99A HDAC1 mutant (electrophoretic mobility shift assay, caliper platform); details: addition of InsP6
T1 construct: Full-length HDAC1 and residues 162–354 of MTA1 were cloned into pcDNA3 vectors; residues 162–354 of MTA1 were cloned into pcDNA3 vectors; FLAG tag with TEV protease cleavage site (cleaved yes); made in house
Experimental: Figure 5 Inhibition of HDAC1:MTA1 by a novel peptide-based inhibitor. (a) Inhibition curve of HDAC1:MTA1 by the histone H4 peptide H4K16Hx. (b)The position of H4K16Hx (pink) bound to the active site of HDAC1 (purple). The sidechain of HDAC1 residue D99 undergoes a significant rearrangement (indicated by arrow) to coordinate binding of the peptide (apo-HDAC1 shown in grey). […] HDAC assays were performed using an electrophoretic mobility shift assay on the caliper platform. Error bars indicate±s.e.m. (n=3).

HDAC1:MTA1 complex = target: T2, HDAC1:MTA1 complex (Homo sapiens, UniProt Q13330+Q13547); assay: Activation of HDAC1:MTA1 deacetylase activity by inositol phosphates (BOC-Lys-AMC assay)
T2 construct: Full-length HDAC1 and residues 162–354 of MTA1 were cloned into pcDNA3 vectors; residues 162–354 of MTA1 were cloned into pcDNA3 vectors; FLAG tag with TEV protease cleavage site (cleaved yes); made in house; host or cells: HEK293F cells (co-transfection, pcDNA3)
Experimental: (§3) HDAC activity of the protein complex was measured using an HDAC assay with a BOC-Lys-AMC substrate. 50 nM HDAC3:SMRT or 50 nM HDAC1:MTA1 was incubated with 100 μM BOC-Lys-AMC substrate in a final volume of 50 μl buffer A (50 mM Tris pH 7.5, 50 mM NaCl, 5% Glycerol), in a black 96-well plate for 30 min at 37 °C.
(§4) To test the ability of inositol phosphates and derivatives to activate the complex, 50 nM HDAC3:SMRT (which had been stripped of its endogenous co-purified inositol phosphate) or 50 nM HDAC1:MTA1 was incubated with inositol phosphate or analogue for 30 min at 37 °C before the HDAC activity was measured. All measurements were performed in triplicate and data analysed using GraphPad Prism (version 6.0, GraphPad Software, Inc).

HDAC1:MTA1 = target: T3, HDAC1:MTA1 (Homo sapiens, UniProt Q13330+Q13547); assay: Michaelis-Menten enzyme kinetics on Caliper EZ Reader with H4K16ac peptide; details: H4 12–18K16ac peptide; in the presence of the inositol phosphate
T3 construct: Full-length HDAC1 and residues 162–354 of MTA1 were cloned into pcDNA3 vectors; residues 162–354 of MTA1 were cloned into pcDNA3 vectors; FLAG tag with TEV protease cleavage site (cleaved yes); made in house; host or cells: HEK293F cells (co-transfection, pcDNA3)
Source text: as §1, §2

HDAC3:SMRT complex [1] = target: T4, HDAC3:SMRT complex (Homo sapiens, UniProt O15379); assay: Activation of HDAC3:SMRT deacetylase activity by inositol phosphates (BOC-Lys-AMC assay); details: BOC-Lys-AMC assay; one-site binding fit of HDAC activity vs inositol phosphate concentration; read-out: Kdapp (apparent Kd from activation titration)
T4 construct: Full-length HDAC3, and residues 350–480 of SMRT were cloned into pcDNA3 vectors; residues 350–480 of SMRT were cloned into pcDNA3 vectors; FLAG tag with TEV protease cleavage site (cleaved yes); made in house; host or cells: HEK293F cells (co-transfection, pcDNA3)
Experimental: (§5) To understand the stereochemical basis underlying the activation of HDAC3 by inositol phosphates we investigated the ability of a range of inositol phosphates and derivatives to enhance the activity of HDAC3 in deacetylase assays. To achieve this we used an assay based on the complex of HDAC3 with an extended SMRT construct which is stable in the absence of inositol phosphate.
as §3, §4

HDAC3:SMRT complex [2] = target: T5, HDAC3:SMRT complex (Homo sapiens, UniProt O15379+Q9Y618); assay: as above
T5 construct: Full-length HDAC3, and residues 350–480 of SMRT were cloned into pcDNA3 vectors; residues 350–480 of SMRT were cloned into pcDNA3 vectors; FLAG tag with TEV protease cleavage site (cleaved yes); made in house; host or cells: HEK293F cells (co-transfection, pcDNA3)
Experimental: as §5, §3, §4

T2 sequence (Q13547 whole entry, the tested form may be a part): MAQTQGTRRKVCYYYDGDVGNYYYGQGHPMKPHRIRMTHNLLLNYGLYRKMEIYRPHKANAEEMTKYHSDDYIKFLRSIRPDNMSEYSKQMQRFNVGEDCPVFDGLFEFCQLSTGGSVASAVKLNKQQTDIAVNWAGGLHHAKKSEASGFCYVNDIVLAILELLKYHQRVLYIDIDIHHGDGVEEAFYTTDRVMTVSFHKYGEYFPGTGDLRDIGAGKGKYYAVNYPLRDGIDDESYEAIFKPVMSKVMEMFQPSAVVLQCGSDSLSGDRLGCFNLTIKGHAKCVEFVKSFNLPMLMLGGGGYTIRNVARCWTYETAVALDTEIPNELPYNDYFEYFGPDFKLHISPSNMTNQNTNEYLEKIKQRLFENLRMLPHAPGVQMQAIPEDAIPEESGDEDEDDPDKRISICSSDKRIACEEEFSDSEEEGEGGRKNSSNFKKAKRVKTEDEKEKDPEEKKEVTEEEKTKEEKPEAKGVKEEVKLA
T2 sequence (Q13330 162-354): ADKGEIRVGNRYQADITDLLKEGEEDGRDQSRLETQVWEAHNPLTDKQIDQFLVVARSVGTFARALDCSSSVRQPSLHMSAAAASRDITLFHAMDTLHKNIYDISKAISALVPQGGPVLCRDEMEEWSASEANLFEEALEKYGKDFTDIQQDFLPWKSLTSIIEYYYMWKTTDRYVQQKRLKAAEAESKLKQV
T5 sequence (O15379 whole entry, the tested form may be a part): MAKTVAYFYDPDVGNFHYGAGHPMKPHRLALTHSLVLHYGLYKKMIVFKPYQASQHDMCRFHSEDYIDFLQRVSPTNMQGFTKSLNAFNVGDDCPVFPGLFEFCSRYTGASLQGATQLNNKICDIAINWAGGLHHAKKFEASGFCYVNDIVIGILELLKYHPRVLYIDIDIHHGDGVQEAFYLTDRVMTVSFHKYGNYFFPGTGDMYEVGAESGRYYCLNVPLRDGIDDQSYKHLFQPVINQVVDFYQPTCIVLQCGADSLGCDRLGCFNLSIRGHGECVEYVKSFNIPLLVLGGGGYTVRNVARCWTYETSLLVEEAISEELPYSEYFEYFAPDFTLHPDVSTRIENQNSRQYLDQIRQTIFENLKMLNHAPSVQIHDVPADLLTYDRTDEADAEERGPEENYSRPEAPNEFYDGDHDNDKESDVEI
T5 sequence (Q9Y618 350-480): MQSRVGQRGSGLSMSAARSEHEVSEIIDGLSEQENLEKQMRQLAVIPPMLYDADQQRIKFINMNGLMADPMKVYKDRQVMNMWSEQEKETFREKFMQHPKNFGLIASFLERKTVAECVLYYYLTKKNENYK
T3 sequence (Q13547 whole entry, the tested form may be a part): as the sequence (Q13547 whole entry, the tested form may be a part) above
T3 sequence (Q13330 162-354): as the sequence (Q13330 162-354) above
T4 sequence (O15379 whole entry, the tested form may be a part): as the sequence (O15379 whole entry, the tested form may be a part) above
T4 sequence (Q9Y618 350-480, further chain): as the sequence (Q9Y618 350-480) above
Sequence of HDAC3:SMRT (O15379 whole entry, the tested form may be a part): as the sequence (O15379 whole entry, the tested form may be a part) above
Sequence of HDAC3:SMRT (Q9Y618 350-480): as the sequence (Q9Y618 350-480) above
T1 sequence (Q13547 whole entry D99A, the tested form may be a part): as the sequence (Q13547 whole entry, the tested form may be a part) above, with D99A counted along it
T1 sequence (Q13330 162-354): as the sequence (Q13330 162-354) above

kcat (HDAC3:SMRT): 2.59 s⁻¹ | rescue of deacetylase activity of D99A mutant (D99A HDAC1 mutant): activity is not rescued | activation of HDAC1:MTA1 complex (HDAC1:MTA1 complex): can be activated | Kd (HDAC1:MTA1 complex; read-out: Kdapp (apparent Kd from activation titration)): 4 µM | kcat (HDAC1:MTA1): 1.01 s⁻¹ | Kd (HDAC3:SMRT complex [1]): 0.6 µM | HDAC3 activation relative to maximal Ins(1,4,5,6)P4-stimulated activity (HDAC3:SMRT complex [2]; BOC-Lys-AMC assay, titration / maximal activation): same degree as Ins(1,4,5,6)P4 | increase in apparent affinity compared with Ins(1,4,5,6)P4 (HDAC3:SMRT complex [2]; ratio of apparent Kd values): 16 fold
SMILES: O=P(O)(O)O[C@H]1[C@H](OP(=O)(O)O)[C@@H](OP(=O)(O)O)[C@H](OP(=O)(O)O)[C@@H](OP(=O)(O)O)[C@H]1OP(=O)(O)O [InsP6, inositol hexaphosphate]
